Columns and labels:
[1] = test system: neurotoxicity (rotarod); assay: Neurotoxicity test (TOX), rotarod, mice; assay type: in vivo
Method: (§1) In order to define anticonvulsant activity, screening tests were performed, using animal models of seizures. […] Each substance (after dissolving in methylcellulose) was normally tested in doses 30, 100, and 300 mg/kg body weight (b.w.) (mice) or in 30 and 50 mg/kg b.w. (rats) in two possible routes of administration: intraperitoneal (i.p.) or oral (p.o.). Appropriate tests were performed 0.5 and 4 h after administration of the compound. […] (mice) the tests were also performed in doses 10 and 3 mg/kg b.w.
It is performed with use of rotarod test. The animal is placed on a plastic rod (1 inch in diameter), rotating 6 rpm. The rod is placed on a level discouraging the animal to jump off. […] Neurotoxicity is stated if the animal cannot stay on the rod for 1 min. in any of 3 trials. Normally the test is performed in dose 30 mg/kg b.w. in 4 mice (0.5 h) and in 2 mice (4 h), in the dose 100 mg/kg b.w. in 8 mice (0.5 h) and in 4 mice (4 h) and in the dose 300 mg/kg b.w. in 4 mice (0.5 h) and 2 mice (4 h).

[2] = test system: maximal electroshock seizures; assay: Maximum Electroshock Seizure (MES) test, mice; assay type: in vivo; settings: mice, time 0.5 h
Method: as §1
Maximum Electroshock Seizure (MES) test is an electric test, verifying activity towards generalized tonic-clonic seizures (grand mal epilepsy). […] Its procedure consists in administration to an animal a mentioned dose, and after 0.5 or 4 h attaching corneal electrodes (after anesthetic eye-drops: 0.5% tetracaine hydrochloride in 0.9% NaCl) and turning on electric current (60 Hz, 0.2 s, 50 mA (mice) or 150 mA (rats)). […] Normally, in the dose 30 mg/kg b.w. the test is done in 1 mouse after 0.5 or 4 h, in the dose 100 mg/kg b.w.—in 3 mice, and in the dose 300 mg/kg b.w.—in 1 mouse.

[3] = mice, dose 300 mg/kg b.w., 0.5 h
[4] = mice, dose 100 mg/kg b.w., time 0.5 h
[5] = mice, dose 300 mg/kg b.w., time 0.5 h

With `CCC(NC(=O)COc1c(C)cccc1Cl)C(N)=O` (racemic) [Compound 78, D,L-2N-[(2-chlor-6-methylphenoxy)acetyl]aminobutyramide] the “TOX, No. of animals exhibiting motor impairment/no. of used animals” value [1, 3] was 1/4.

In the case of `Cc1cccc(C)c1OCCN[C@@H]1CCCC[C@H]1O` (relative stereo) [Compound 18, D,L-trans-2N-[(2,6-dimethylphenoxy)ethyl]amino-1-cyclohexanol], the “TOX, No. of animals exhibiting motor impairment/no. of used animals” value [1, 4] is reported as 7/8, the “TOX, No. of animals exhibiting motor impairment/no. of used animals” value [1, 5] is reported as 4/4 and the “MES, No. of protected animals/No. of used animals” value ([2]; dose 100 mg/kg b.w.) is reported as 3/3.

`Cc1cccc(Cl)c1OCCN[C@@H]1CCCC[C@H]1O` (relative stereo) [Compound 30, D,L-trans-2N-[(2-chlor-6-methylphenoxy)ethyl]amino-1-cyclohexanol] was tested, and the “TOX, No. of animals exhibiting motor impairment/no. of used animals” value [1, 4] was 8/8, the “TOX, No. of animals exhibiting motor impairment/no. of used animals” value [1, 5] was 4/4 and the “MES, No. of protected animals/No. of used animals” value ([2]; dose 30 mg/kg b.w.) was 1/1. For the same compound, the “MES, No. of protected animals/No. of used animals” value ([2]; dose 100 mg/kg b.w.) was 1/1.

In the case of `Cc1cc(C)c(OCCN[C@@H]2CCCC[C@H]2O)c(C)c1` (relative stereo) [Compound 44, D,L-trans-2N-[(2,4,6-trimethylphenoxy)ethyl]amino-1-cyclohexanol], the “TOX, No. of animals exhibiting motor impairment/no. of used animals” value ([1]; mice, dose 10 mg/kg b.w., time 0.5 h) is reported as 1/4, the “TOX, No. of animals exhibiting motor impairment/no. of used animals” value [1, 4] is reported as 8/8 and the “MES, No. of protected animals/No. of used animals” value ([2]; dose 10 mg/kg b.w.) is reported as 1/4. For the same compound, the “MES, No. of protected animals/No. of used animals” value ([2]; dose 30 mg/kg b.w.) was 1/1.

In the case of `CCC(CO)NCCOc1cccc(C)c1C` (centres unmarked) [Compound 2, R,S-2N-[(2,3-dimethylphenoxy)ethyl]amino-1-butanol], the “TOX, No. of animals exhibiting motor impairment/no. of used animals” value ([1]; mouse, in vivo, 100 mg/kg) is reported as 8/8, the “TOX, No. of animals exhibiting motor impairment/no. of used animals” value ([1]; mouse, in vivo, 300 mg/kg) is reported as 4/4 and the “MES, No. of protected animals/No. of used animals” value ([2]; dose 100 mg/kg b.w.) is reported as 3/3.

In the case of `Cc1cccc(OCCNC(C)(C)CO)c1C` [Compound 3, 2N-[(2,3-dimethylphenoxy)ethyl]amino-2-methyl-1-propanol], the “TOX, No. of animals exhibiting motor impairment/no. of used animals” value [1, 4] is reported as 7/8, the “TOX, No. of animals exhibiting motor impairment/no. of used animals” value [1, 5] is reported as 4/4 and the responders at 100 mg/kg ([2]; Mus musculus, dose 100 mg/kg b.w., read-out: MES, No. of protected animals/No. of used animals (converted)) is reported as 66.7%.

In the case of `Cc1ccc(C)c(OCCNCC(C)O)c1` (centres unmarked) [Compound 5, R,S-1N-[(2,5-dimethylphenoxy)ethyl]amino-2-propanol], the “TOX, No. of animals exhibiting motor impairment/no. of used animals” value ([1]; mouse, in vivo, 300 mg/kg) is reported as 4/4 and the “MES, No. of protected animals/No. of used animals” value ([2]; dose 100 mg/kg b.w.) is reported as 3/3.

For `Cc1ccc(C)c(OCCNCC(O)c2ccccc2)c1` (centres unmarked) [Compound 9, R,S-2N-[(2,5-dimethylphenoxy)ethyl]amino-1-phenylethanol], the “TOX, No. of animals exhibiting motor impairment/no. of used animals” value [1, 4] was 7/8, the “TOX, No. of animals exhibiting motor impairment/no. of used animals” value [1, 5] was 3/4 and the “TOX, No. of animals exhibiting motor impairment/no. of used animals” value ([1]; mice, dose 300 mg/kg b.w., time 4 h) was 1/2.

With `Cc1cc(Cl)ccc1OCCNCC(O)c1ccccc1` (centres unmarked) [Compound 37, R,S-2N-[(4-chlor-2-methylphenoxy)ethyl]amino-1-phenylethanol] the “TOX, No. of animals exhibiting motor impairment/no. of used animals” value [1, 5] was 1/4.

For `Cc1cccc(Cl)c1OCC(=O)NCCCC(=O)O` [Compound 79, 4N-[(2-chlor-6-methylphenoxy)acetyl]aminobutyric acid], the “TOX, No. of animals exhibiting motor impairment/no. of used animals” value [1, 3] was 1/4.

In the case of `Cc1cc(Cl)ccc1OCC(=O)NCC(O)c1ccccc1` (centres unmarked) [Compound 82, R,S-2N-[(4-chlor-2-methylphenoxy)acetyl]amino-1-phenylethanol], the “TOX, No. of animals exhibiting motor impairment/no. of used animals” value ([1]; mice, dose 100 mg/kg b.w., 0.5 h) is reported as 2/8, the “TOX, No. of animals exhibiting motor impairment/no. of used animals” value [1, 3] is reported as 4/4 and the “TOX, No. of animals exhibiting motor impairment/no. of used animals” value ([1]; mice, dose 300 mg/kg b.w., 4 h) is reported as 1/2.

With `Cc1cc(C)c(OCC(=O)NCC(O)c2ccccc2)c(C)c1` (centres unmarked) [Compound 83, R,S-2N-[(2,4,6-trimethylphenoxy)acetyl]amino-1-phenylethanol] the “TOX, No. of animals exhibiting motor impairment/no. of used animals” value [1, 3] was 4/4.

From US8633251B2, “Derivatives of aminoalkanols, method of obtaining of aminoalkanols and their use” (Uniwersytet Jagiellonski, priority 2008, dated 2014)
